Data reported in patent US20260070945A1, “MACROCYCLIC IMMUNOMODULATORS” (Bristol-Myers Squibb Company, priority 2022, published 2026).
Where a SMILES comes first, the peptide text is derived from it. Bridges are numbered along the chain shown (N, C = ends). [ ]: non-standard residue; d: D form. The star is where a group is joined. Phe(4-COOH) = N[C@@H](Cc1ccc(C(=O)O)cc1)C(=O)O; Bip = N[C@@H](Cc1ccc(-c2ccccc2)cc1)C(=O)O; hArg = N=C(N)NCCCC[C@H](N)C(=O)O; 4Pal = N[C@@H](Cc1ccncc1)C(=O)O; Cha = N[C@@H](CC1CCCCC1)C(=O)O; 12Ado = NCCCCCCCCCCCC(=O)O; Carboxymethyl = O=C(O)C*; NMeA = CN[C@@H](C)C(=O)O; Orn = NCCC[C@H](N)C(=O)O; Aun = NCCCCCCCCCCC(=O)O; Dab = NCC[C@H](N)C(=O)O; Dap = NC[C@H](N)C(=O)O; AEEA = NCCOCCOCC(=O)O

target: T1, PD-1/PD-L1 interaction (PE-labeled human PD-L1-Ig binding to Jurkat cell line over-expressing human PD-1) (Homo sapiens, UniProt Q15116); assay: Jurkat-PD-1 Cell Binding High-Content Screening Assay (CBA); conditions: Jurkat-hPD-1 cells, PE-labeled PD-L1-Ig 20 nM final; read-out: Jurkat HPD1 PDL1 IC50
T1 construct: expressed in transfected cells; host or cells: Jurkat
Summary of the method: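 Cells 8×10^3/well, DMEM + 10% FCS; cpd 2 h, 37 °C; PE–PD-L1-Ig 20 nM final, 1 h; PFA fix + Hoechst 33342, 3× dPBS wash; high-content imager.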

T1 sequence (Q15116 25-288): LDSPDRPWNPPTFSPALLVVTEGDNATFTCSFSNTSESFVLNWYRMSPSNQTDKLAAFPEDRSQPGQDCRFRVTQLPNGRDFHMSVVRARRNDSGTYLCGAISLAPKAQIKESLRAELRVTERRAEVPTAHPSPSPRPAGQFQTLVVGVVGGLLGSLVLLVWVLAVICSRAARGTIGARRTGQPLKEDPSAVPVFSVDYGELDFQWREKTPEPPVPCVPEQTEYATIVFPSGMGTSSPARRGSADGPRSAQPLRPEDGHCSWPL

Structure (SMILES) | IC50
CC(C)C[C@@H]1NC(=O)[C@H](Cc2c[nH]c3ccccc23)NC(=O)[C@H](CC(=O)O)NC(=O)[C@H](Cc2ccc(C(=O)O)cc2)NC(=O)[C@H](Cc2ccc(OCC(=O)O)cc2)NC(=O)CSC[C@@H](C(=O)N[C@@H](CCCN)C(=O)NCCOCCOCC(=O)NCCCCCCCCCCC(=O)O)NC(=O)[C@H](CCCCN)NC(=O)[C@H](C(C)C)NC(=O)[C@H](CC2CCCCC2)NC(=O)[C@H](CC(=O)O)NC(=O)[C@@H](CC(C)C)NC(=O)[C@H](C)N(C)C(=O)[C@H](C(C)C)NC(=O)[C@H](Cc2ccc(-c3ccccc3)cc2)NC1=O [Example 2136] ({CH2CO}-Y(Carboxymethyl)[Phe(4-COOH)]DWL[Bip]V[NMeA][dL]D[Cha]VKC[Orn][AEEA][Aun]-OH; thioether N-14) | 143 nM
CC(C)C[C@@H]1NC(=O)[C@H](Cc2c[nH]c3ccccc23)NC(=O)[C@H](CC(=O)O)NC(=O)[C@H](Cc2ccc(C(=O)O)cc2)NC(=O)[C@H](Cc2ccc(OCC(=O)O)cc2)NC(=O)CSC[C@@H](C(=O)N[C@@H](CCCN)C(=O)NCCOCCOCC(=O)NCCCCCCCCCCC(=O)O)NC(=O)[C@H](CCCCN)NC(=O)[C@H](C(C)C)NC(=O)[C@H](CC2CCCCC2)NC(=O)[C@H](CCC(=O)O)NC(=O)[C@@H](CC(C)C)NC(=O)[C@H](C)N(C)C(=O)[C@H](C(C)C)NC(=O)[C@H](Cc2ccc(-c3ccccc3)cc2)NC1=O [Example 2137] ({CH2CO}-Y(Carboxymethyl)[Phe(4-COOH)]DWL[Bip]V[NMeA][dL]E[Cha]VKC[Orn][AEEA][Aun]-OH; thioether N-14) | 30.4 nM
CC(C)C[C@@H]1NC(=O)[C@H](Cc2c[nH]c3ccccc23)NC(=O)[C@H](CC(=O)O)NC(=O)[C@H](Cc2ccc(C(=O)O)cc2)NC(=O)[C@H](Cc2ccc(OCC(=O)O)cc2)NC(=O)CSC[C@@H](C(=O)N[C@@H](CCCN)C(=O)NCCOCCOCC(=O)NCCCCCCCCCCC(=O)O)NC(=O)[C@H](CO)NC(=O)[C@H](C(C)C)NC(=O)[C@H](CC2CCCCC2)NC(=O)[C@H](CCCN)NC(=O)[C@@H](CC(C)C)NC(=O)[C@H](C)N(C)C(=O)[C@H](C(C)C)NC(=O)[C@H](Cc2ccc(-c3ccccc3)cc2)NC1=O [Example 2138] ({CH2CO}-Y(Carboxymethyl)[Phe(4-COOH)]DWL[Bip]V[NMeA][dL][Orn][Cha]VSC[Orn][AEEA][Aun]-OH; thioether N-14) | 14.2 nM
CC(C)C[C@@H]1NC(=O)[C@H](Cc2c[nH]c3ccccc23)NC(=O)[C@H](CC(=O)O)NC(=O)[C@H](Cc2ccc(OCC(=O)O)cc2)NC(=O)[C@H](CCCNC(=N)N)NC(=O)CSC[C@@H](C(=O)N[C@@H](CCCN)C(=O)NCCOCCOCC(=O)NCCCCCCCCCCC(=O)O)NC(=O)[C@H](CO)NC(=O)[C@H](C(C)C)NC(=O)[C@H](CC2CCCCC2)NC(=O)[C@H](CCN)NC(=O)[C@@H](CC(C)C)NC(=O)[C@H](C)N(C)C(=O)[C@H](C(C)C)NC(=O)[C@H](Cc2ccc(-c3ccccc3)cc2)NC1=O [Example 2139] ({CH2CO}-RY(Carboxymethyl)DWL[Bip]V[NMeA][dL][Dab][Cha]VSC[Orn][AEEA][Aun]-OH; thioether N-14) | 10.9 nM
CC(C)C[C@@H]1NC(=O)[C@H](Cc2c[nH]c3ccccc23)NC(=O)[C@H](CC(=O)O)NC(=O)[C@H](CCCCNC(=N)N)NC(=O)[C@H](Cc2ccc(OCC(=O)O)cc2)NC(=O)CSC[C@@H](C(=O)N[C@@H](CCCN)C(=O)NCCOCCOCC(=O)NCCCCCCCCCCC(=O)O)NC(=O)[C@H](CO)NC(=O)[C@H](C(C)C)NC(=O)[C@H](CC2CCCCC2)NC(=O)[C@H](CCN)NC(=O)[C@@H](CC(C)C)NC(=O)[C@H](C)N(C)C(=O)[C@H](C(C)C)NC(=O)[C@H](Cc2ccc(-c3ccccc3)cc2)NC1=O [Example 2140] ({CH2CO}-Y(Carboxymethyl)[hArg]DWL[Bip]V[NMeA][dL][Dab][Cha]VSC[Orn][AEEA][Aun]-OH; thioether N-14) | 15.7 nM
CC(C)C[C@@H]1NC(=O)[C@H](Cc2c[nH]c3ccccc23)NC(=O)[C@H](CC(=O)O)NC(=O)[C@H](Cc2ccncc2)NC(=O)[C@H](Cc2ccc(OCC(=O)O)cc2)NC(=O)CSC[C@@H](C(=O)N[C@@H](CCCN)C(=O)NCCOCCOCC(=O)NCCCCCCCCCCCC(=O)O)NC(=O)[C@H](CO)NC(=O)[C@H](C(C)C)NC(=O)[C@H](CC2CCCCC2)NC(=O)[C@H](CCN)NC(=O)[C@@H](CC(C)C)NC(=O)[C@H](C)N(C)C(=O)[C@H](C(C)C)NC(=O)[C@H](Cc2ccc(-c3ccccc3)cc2)NC1=O [Example 2141] ({CH2CO}-Y(Carboxymethyl)[4Pal]DWL[Bip]V[NMeA][dL][Dab][Cha]VSC[Orn][AEEA][12Ado]-OH; thioether N-14) | 13.2 nM
CC(C)C[C@@H]1NC(=O)[C@H](Cc2c[nH]c3ccccc23)NC(=O)[C@H](CC(=O)O)NC(=O)[C@H](Cc2ccc(OCC(=O)O)cc2)NC(=O)[C@H](Cc2ccncc2)NC(=O)CSC[C@@H](C(=O)N[C@@H](CCCN)C(=O)NCCOCCOCC(=O)NCCCCCCCCCCC(=O)O)NC(=O)[C@H](CO)NC(=O)[C@H](C(C)C)NC(=O)[C@H](CC2CCCCC2)NC(=O)[C@H](CCN)NC(=O)[C@@H](CC(C)C)NC(=O)[C@H](C)N(C)C(=O)[C@H](C(C)C)NC(=O)[C@H](Cc2ccc(-c3ccccc3)cc2)NC1=O [Example 2142] ({CH2CO}-[4Pal]Y(Carboxymethyl)DWL[Bip]V[NMeA][dL][Dab][Cha]VSC[Orn][AEEA][Aun]-OH; thioether N-14) | 11.6 nM
CC(C)C[C@@H]1NC(=O)[C@H](Cc2c[nH]c3ccccc23)NC(=O)[C@H](CC(=O)O)NC(=O)[C@H](Cc2ccc(C(=O)O)cc2)NC(=O)[C@H](Cc2ccc(OCC(=O)O)cc2)NC(=O)CSC[C@@H](C(=O)N[C@@H](CCCN)C(=O)NCCOCCOCC(=O)NCCCCCCCCCCC(=O)O)NC(=O)[C@H](CN)NC(=O)[C@H](C(C)C)NC(=O)[C@H](CC2CCCCC2)NC(=O)[C@H](CC(N)=O)NC(=O)[C@@H](CC(C)C)NC(=O)[C@H](C)N(C)C(=O)[C@H](C(C)C)NC(=O)[C@H](Cc2ccc(-c3ccccc3)cc2)NC1=O [Example 2143] ({CH2CO}-Y(Carboxymethyl)[Phe(4-COOH)]DWL[Bip]V[NMeA][dL]N[Cha]V[Dap]C[Orn][AEEA][Aun]-OH; thioether N-14) | 61.3 nM
CC(C)C[C@@H]1NC(=O)[C@H](Cc2c[nH]c3ccccc23)NC(=O)[C@H](CC(=O)O)NC(=O)[C@H](Cc2ccc(C(=O)O)cc2)NC(=O)[C@H](Cc2ccc(OCC(=O)O)cc2)NC(=O)CSC[C@@H](C(=O)N[C@@H](CCCN)C(=O)NCCOCCOCC(=O)NCCCCCCCCCCC(=O)O)NC(=O)[C@H](CCCN)NC(=O)[C@H](C(C)C)NC(=O)[C@H](CC2CCCCC2)NC(=O)[C@H](CC(N)=O)NC(=O)[C@@H](CC(C)C)NC(=O)[C@H](C)N(C)C(=O)[C@H](C(C)C)NC(=O)[C@H](Cc2ccc(-c3ccccc3)cc2)NC1=O [Example 2144] ({CH2CO}-Y(Carboxymethyl)[Phe(4-COOH)]DWL[Bip]V[NMeA][dL]N[Cha]V[Orn]C[Orn][AEEA][Aun]-OH; thioether N-14) | 19.3 nM
CC(C)C[C@@H]1NC(=O)[C@H](Cc2c[nH]c3ccccc23)NC(=O)[C@H](CC(=O)O)NC(=O)[C@H](Cc2ccc(C(=O)O)cc2)NC(=O)[C@H](Cc2ccc(OCC(=O)O)cc2)NC(=O)CSC[C@@H](C(=O)N[C@@H](CCCN)C(=O)NCCOCCOCC(=O)NCCCCCCCCCCC(=O)O)NC(=O)[C@H](CCCCN)NC(=O)[C@H](C(C)C)NC(=O)[C@H](CC2CCCCC2)NC(=O)[C@H](CC(N)=O)NC(=O)[C@@H](CC(C)C)NC(=O)[C@H](C)N(C)C(=O)[C@H](C(C)C)NC(=O)[C@H](Cc2ccc(-c3ccccc3)cc2)NC1=O [Example 2145] ({CH2CO}-Y(Carboxymethyl)[Phe(4-COOH)]DWL[Bip]V[NMeA][dL]N[Cha]VKC[Orn][AEEA][Aun]-OH; thioether N-14) | 14.3 nM
CC(C)C[C@@H]1NC(=O)[C@H](Cc2c[nH]c3ccccc23)NC(=O)[C@H](CC(=O)O)NC(=O)[C@H](Cc2c[nH]cn2)NC(=O)[C@H](Cc2ccc(OCC(=O)O)cc2)NC(=O)CSC[C@@H](C(=O)N[C@@H](CCCN)C(=O)NCCOCCOCC(=O)NCCCCCCCCCCC(=O)O)NC(=O)[C@H](CO)NC(=O)[C@H](C(C)C)NC(=O)[C@H](CC2CCCCC2)NC(=O)[C@H](CCN)NC(=O)[C@@H](CC(C)C)NC(=O)[C@H](C)N(C)C(=O)[C@H](C(C)C)NC(=O)[C@H](Cc2ccc(-c3ccccc3)cc2)NC1=O [Example 2146] ({CH2CO}-Y(Carboxymethyl)HDWL[Bip]V[NMeA][dL][Dab][Cha]VSC[Orn][AEEA][Aun]-OH; thioether N-14) | 12.7 nM
CC(C)C[C@@H]1NC(=O)[C@H](Cc2c[nH]c3ccccc23)NC(=O)[C@H](CC(=O)O)NC(=O)[C@H](Cc2ccc(O)cc2)NC(=O)[C@H](Cc2ccncc2)NC(=O)CSC[C@@H](C(=O)N[C@@H](CCCN)C(=O)NCCOCCOCC(=O)NCCCCCCCCCCC(=O)O)NC(=O)[C@H](CO)NC(=O)[C@H](C(C)C)NC(=O)[C@H](CC2CCCCC2)NC(=O)[C@H](CCN)NC(=O)[C@@H](CC(C)C)NC(=O)[C@H](C)N(C)C(=O)[C@H](C(C)C)NC(=O)[C@H](Cc2ccc(-c3ccccc3)cc2)NC1=O [Example 2147] ({CH2CO}-[4Pal]YDWL[Bip]V[NMeA][dL][Dab][Cha]VSC[Orn][AEEA][Aun]-OH; thioether N-14) | 10.4 nM
CC(C)C[C@@H]1NC(=O)[C@H](Cc2c[nH]c3ccccc23)NC(=O)[C@H](CC(=O)O)NC(=O)[C@H](Cc2ccc(O)cc2)NC(=O)[C@H](Cc2ccccc2)NC(=O)CSC[C@@H](C(=O)N[C@@H](CCCN)C(=O)NCCOCCOCC(=O)NCCCCCCCCCCC(=O)O)NC(=O)[C@H](CO)NC(=O)[C@H](C(C)C)NC(=O)[C@H](CC2CCCCC2)NC(=O)[C@H](CCN)NC(=O)[C@@H](CC(C)C)NC(=O)[C@H](C)N(C)C(=O)[C@H](C(C)C)NC(=O)[C@H](Cc2ccc(-c3ccccc3)cc2)NC1=O [Example 2148] ({CH2CO}-FYDWL[Bip]V[NMeA][dL][Dab][Cha]VSC[Orn][AEEA][Aun]-OH; thioether N-14) | 54.1 nM
